From patent US20060079453A1, “Hla binding peptides and their uses” (priority 2002, published 2006)
Read-outs that look alike come from different tables or passages of the source. No end group written: not given here.

Legend:
Experiment in all cases: biochemical
Type in all cases: binding
[1] = target: HLA-DR DRB4*0101 (DR53) (Homo sapiens, UniProt P01903+P13762, G164S); conditions: DRB4 *0101
[2] = target: HLA-DR DRB1*0101 (DR1) (Homo sapiens, UniProt P01903+P01911, A100R/D57E/F55L/F60I/F76Y/I96L/L162R/M171V/P40L/Q125E/R42F/V115G/Y59C)
[3] = target: HLA-DR DRB1*0701 (DR7) (Homo sapiens, UniProt P01903+P01911, A100R/A102G/A103Q/D57E/D86V/E43K/F76Y/K127E/L162R/M171V/P40G/Q125H/Q99D/R33Q/R42Y/R54Q/S133A/S66F/T210M/V115G/Y107V/Y59L/Y89S)
[4] = target: HLA-DR DRB1*0301 (DR3) (Homo sapiens, UniProt P01903+P01911, A100K/A102G/A103R/A169T/F55Y/I96L/K41T/L162R/M171V/P40S/Q125H/Q178H/Q39Y/R42S/S66N/T106N/T262R/W38E/Y61H)
Sequence of HLA-DR DRB1*0301 (DR3) (P01903 26-254 limits assumed, other chains not shown): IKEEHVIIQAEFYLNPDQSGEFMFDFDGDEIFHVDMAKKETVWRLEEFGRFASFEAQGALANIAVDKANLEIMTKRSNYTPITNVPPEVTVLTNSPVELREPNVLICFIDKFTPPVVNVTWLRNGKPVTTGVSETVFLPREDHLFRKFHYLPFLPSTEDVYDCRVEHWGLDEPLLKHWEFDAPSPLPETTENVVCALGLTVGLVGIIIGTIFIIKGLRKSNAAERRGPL

[5] = target: HLA-DR DRB1*0802 (DR8) (Homo sapiens, UniProt P01903+P01911, A100R/A103L/A169T/F76Y/H45Y/I96F/K41T/L162R/M171V/P40S/Q125H/Q178H/Q39Y/Q99D/R218S/R42G/S66Y/V115G/W38E)
[6] = target: HLA-DR DRB1*0401 (DR4) (Homo sapiens, UniProt P01903+P01911, A100K/A169T/F76Y/I96L/K127E/L162R/M171V/N62H/P40V/Q125Y/R42H/S133A/S149N/S66Y/V115G/V209L/W38E)
[7] = target: HLA-DR DRB1*0901 (DR9) (Homo sapiens, UniProt P01903+P01911, A100R/A103E/D57H/D86V/F55Y/F60I/F76Y/I96F/K127E/L162R/M171V/P40D/Q125H/Q99R/R33Q/R42F/S133A/S66N/T210M/V115G/W38K/Y107V/Y59G/Y89S)
[8] = target: HLA-DR DRB1*1501 (DR15) (Homo sapiens, UniProt P01903+P01911); conditions: DRBI *1501
[9] = target: HLA-DR DRB5*0101 (DR51) (Homo sapiens, UniProt P01903+Q30154); conditions: DRB5 *0101
[10] = target: HLA-DR DRB1*1302 (DR13) (Homo sapiens, UniProt P01903+P01911, A100E/A169T/K41T/L162R/M171V/P40S/Q125H/Q178H/Q39Y/Q99D/R42S/S66N/T262R/V115G/W38E/Y61H); conditions: DRBI *1302
Sequence of HLA-DR DRB1*1302 (DR13) (P01903 26-254 limits assumed, other chains not shown): as above

[11] = target: HLA-DR DRB1*1101 (DR11) (Homo sapiens, UniProt P01903+P01911, A100R/A169T/A87E/I96F/K41T/L162R/M171V/P40S/Q125H/Q178H/Q39Y/Q99D/R42S/S66Y/T262R/V115G/W38E); conditions: DRB1 *1101
Sequence of HLA-DR DRB1*1101 (DR11) (P01903 26-254 limits assumed, other chains not shown): as above

Row | Molecule | IC50 [1] | IC50 ([2]; DRB1 *0101) | IC50 ([3]; DRB1 *0701) | IC50 [4] | IC50 [5] | IC50 ([6]; DRB1 *0401) | IC50 ([7]; DRB1 *0901) | IC50 [8] | IC50 [9] | IC50 [10] | IC50 [11] | IC50 ([2]; read-out: DRB1 *0101) | IC50 ([3]; read-out: DRB1 *0701) | IC50 ([4]; read-out: DRB1 *0301) | IC50 ([5]; read-out: DRB1 *0802) | IC50 ([6]; read-out: DRB1 *0401) | IC50 ([7]; read-out: DRB1 *0901)
1 | CAWTIVRVEILRNFY | 152 nM | 66 nM | 746 nM | 3560 nM | 43700 nM | 158 nM | 757 nM |  |  |  |  |  |  |  |  |  | 
2 | CC[C@H](C)[C@H](NC(=O)[C@H](CS)NC(=O)[C@H](Cc1c[nH]cn1)NC(=O)[C@H](C)NC(=O)[C@H](C)NC(=O)[C@@H](NC(=O)[C@H](CC(C)C)NC(=O)[C@@H](NC(=O)[C@H](Cc1c[nH]c2ccccc12)NC(=O)[C@H](CCC(N)=O)NC(=O)[C@@H]1CCCN1C(=O)[C@@H](N)Cc1c[nH]cn1)C(C)C)[C@@H](C)O)C(=O)N[C@@H](CCCNC(=N)N)C(=O)N[C@@H](CC(N)=O)C(=O)N[C@@H](CCCCN)C(=O)O | 5520 nM | 13 nM | 283 nM | 3630 nM | 1300 nM | 1620 nM | 107 nM | 6500 nM | 40 nM |  |  |  |  |  |  |  | 
3 | PRWLCAGALVLAGGF | 883 nM | 46 nM | 766 nM |  | 26500 nM | > 20000 nM | 1440 nM |  | 40800 nM | 20200 nM | > 40000 nM |  |  |  |  |  | 
4 | CC(C)C[C@H](NC(=O)[C@@H]1CCCN1C(=O)[C@H](Cc1c[nH]cn1)NC(=O)[C@@H]1CCCN1C(=O)[C@H](Cc1ccccc1)NC(=O)[C@H](CO)NC(=O)[C@H](Cc1c[nH]cn1)NC(=O)[C@H](CO)NC(=O)[C@@H](NC(=O)[C@H](CCC(N)=O)NC(=O)[C@H](Cc1ccccc1)NC(=O)[C@@H](NC(=O)[C@H](CCC(N)=O)NC(=O)CN)C(C)C)C(C)C)C(=O)N[C@@H](Cc1ccc(O)cc1)C(=O)O |  |  | 27 nM | 45000 nM | 548 nM | 8.2 nM | 33 nM | 2170 nM | 128 nM | 146 nM |  |  |  |  |  |  | 
5 | LMAFTAAVTS | 11700 nM |  | 240 nM | > 74000 nM | > 40600 nM | 321 nM | 160 nM | 1930 nM | > 12600 nM | > 2460 nM | > 23300 nM |  |  |  |  |  | 
6 | DKAVSGLRSLTTLLR | 2010 nM | 13 nM |  | 4330 nM | 16400 nM | 1010 nM | > 78900 nM | 60 nM | 104 nM | 187 nM | 52 nM |  |  |  |  |  | 
7 | CC[C@H](C)[C@H](NC(=O)[C@@H](N)CCC(N)=O)C(=O)N[C@@H](Cc1ccc(O)cc1)C(=O)N[C@H](C(=O)N[C@@H](C)C(=O)N[C@@H](C)C(=O)N[C@@H](Cc1ccccc1)C(=O)N[C@H](C(=O)N[C@H](C(=O)N[C@@H](CCC(N)=O)C(=O)N[C@@H](C)C(=O)N[C@@H](C)C(=O)N[C@@H](C)C(=O)N[C@@H](CCC(=O)O)C(=O)N[C@H](C(=O)O)[C@@H](C)O)C(C)C)[C@@H](C)O)C(C)C | 50 nM | 1.6 nM | 324 nM | 26600 nM | 102 nM | 1.6 nM | 65 nM | 252 nM | 216 nM |  | 34 nM |  |  |  |  |  | 
8 | SHDLMLLRLSEPAEL |  |  |  |  |  |  |  |  |  |  |  | 532 nM | 58 nM | 6220 nM | 3540 nM | 4050 nM | 64 nM
9 | CC[C@H](C)[C@H](N)C(=O)N[C@@H](CO)C(=O)N[C@H](C(=O)N[C@H](C(=O)N[C@@H](CC(N)=O)C(=O)N[C@@H](CCC(=O)O)C(=O)N[C@@H](CC(=O)O)C(=O)NCC(=O)N[C@@H](CC(N)=O)C(=O)N[C@@H](CCC(=O)O)C(=O)N[C@H](C(=O)N[C@@H](Cc1ccccc1)C(=O)N[C@@H](CC(N)=O)C(=O)N[C@H](C(=O)N[C@@H](CO)C(=O)O)[C@@H](C)O)[C@@H](C)CC)[C@@H](C)CC)[C@@H](C)CC |  |  | > 23100 nM | 559 nM | > 123000 nM | > 13000 nM | > 52300 nM |  |  |  |  |  |  |  |  |  | 
10 | CC[C@H](C)[C@H](NC(=O)CNC(=O)[C@H](CCC(N)=O)NC(=O)[C@H](CC(C)C)NC(=O)[C@@H](NC(=O)CNC(=O)[C@H](CC(N)=O)NC(=O)[C@H](CS)NC(=O)[C@@H](NC(=O)[C@H](CC(C)C)NC(=O)[C@@H]1CCCN1C(=O)CN)C(C)C)C(C)C)C(=O)N[C@H](C(=O)N[C@@H](CO)C(=O)N[C@@H](Cc1c[nH]c2ccccc12)C(=O)O)[C@@H](C)O | 646 nM | 1720 nM | 4890 nM |  | 4190 nM | 30 nM | 32600 nM | 6310 nM | 6540 nM | 49 nM | 915 nM |  |  |  |  |  | 
